The assay addresses ROCK2 (Homo sapiens, UniProt O75116). Description: ROCK assay: phosphorylation of FITC peptide substrate, LABCHIP 3000 mobility shift. The format is biochemical. The settings on record: 5 μM ATP, 1.5 μM peptide substrate; read-out: ROCK2 Activity (ROCK IC50 range). The essentials:
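IC50 values come from curve-fitting percent kinase inhibition across a compound dilution series. The reaction is started with Rho kinase variant in HEPES pH 7.5 buffer with MgCl2, Brij-35 and DTT, with 5 μM ATP, 1.5 μM FITC-labelled peptide and under 2% DMSO. After EDTA quench, product and substrate are separated by microfluidic mobility shift.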

Our source for the IC50 values is patent US9902702B2, “Spirocycloheptanes as inhibitors of rock” (BRISTOL-MYERS SQUIBB COMPANY, priority 2014, dated 2018).

ROCK2, sequence (O75116 whole entry, species assumed): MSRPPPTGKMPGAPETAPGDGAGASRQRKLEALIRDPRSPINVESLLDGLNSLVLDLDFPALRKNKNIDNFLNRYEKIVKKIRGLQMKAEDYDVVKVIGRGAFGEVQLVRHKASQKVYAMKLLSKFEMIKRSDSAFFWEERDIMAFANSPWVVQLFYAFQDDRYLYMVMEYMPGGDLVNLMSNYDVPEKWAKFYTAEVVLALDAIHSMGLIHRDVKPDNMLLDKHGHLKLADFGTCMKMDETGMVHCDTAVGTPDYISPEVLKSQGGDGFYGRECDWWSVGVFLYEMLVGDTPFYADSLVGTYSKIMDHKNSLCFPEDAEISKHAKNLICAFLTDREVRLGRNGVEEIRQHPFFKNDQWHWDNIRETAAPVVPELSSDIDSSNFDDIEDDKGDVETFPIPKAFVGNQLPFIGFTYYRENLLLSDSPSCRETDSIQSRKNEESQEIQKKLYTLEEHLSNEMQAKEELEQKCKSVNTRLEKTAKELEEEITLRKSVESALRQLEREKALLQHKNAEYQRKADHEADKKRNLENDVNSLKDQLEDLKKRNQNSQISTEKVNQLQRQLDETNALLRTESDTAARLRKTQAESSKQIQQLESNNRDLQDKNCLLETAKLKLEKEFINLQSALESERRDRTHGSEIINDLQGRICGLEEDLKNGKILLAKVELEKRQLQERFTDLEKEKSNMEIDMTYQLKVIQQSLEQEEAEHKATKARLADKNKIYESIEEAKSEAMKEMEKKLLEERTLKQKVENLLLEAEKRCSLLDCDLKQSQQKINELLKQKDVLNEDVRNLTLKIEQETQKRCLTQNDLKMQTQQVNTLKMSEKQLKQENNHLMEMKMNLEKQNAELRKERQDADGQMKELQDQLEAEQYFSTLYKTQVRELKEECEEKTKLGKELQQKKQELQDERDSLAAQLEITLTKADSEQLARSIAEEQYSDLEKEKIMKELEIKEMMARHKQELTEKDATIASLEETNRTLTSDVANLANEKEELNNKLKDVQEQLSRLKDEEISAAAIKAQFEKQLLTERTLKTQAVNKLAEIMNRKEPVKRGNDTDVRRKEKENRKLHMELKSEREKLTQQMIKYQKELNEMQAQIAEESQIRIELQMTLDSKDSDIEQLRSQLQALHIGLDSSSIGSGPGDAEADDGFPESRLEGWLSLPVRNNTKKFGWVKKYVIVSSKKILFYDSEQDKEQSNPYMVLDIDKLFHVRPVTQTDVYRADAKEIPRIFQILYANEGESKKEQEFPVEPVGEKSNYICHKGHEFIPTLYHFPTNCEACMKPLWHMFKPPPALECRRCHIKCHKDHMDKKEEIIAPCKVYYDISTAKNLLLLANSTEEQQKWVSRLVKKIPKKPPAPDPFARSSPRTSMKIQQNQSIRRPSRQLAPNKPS

For orientation: IC50 means the concentration that inhibits the measured activity by half. As for `[H][C@]1(c2n[nH]c(=O)c3ccccc32)C[C@]2(C[C@@H](NC(=O)c3cnc4c(Cl)cccn34)C2)C1` (stereo partly drawn) [Example 382, 8-chloro-N-((aR)-6-(4-oxo-3,4-dihydrophthalazin-1-yl)spiro[3.3]heptan-2-yl)imidazo[1,2-a]pyridine-3-carboxamide], the IC50 is 2.01 to 5 nM.

Turning to `[H][C@]1(c2n[nH]c(=O)c3ccccc32)C[C@]2(C[C@@H](NC(=O)c3cnc4cc(-c5ccccc5)ccn34)C2)C1` (stereo partly drawn) [Example 383, N-((aR)-6-(4-oxo-3,4-dihydrophthalazin-1-yl)spiro[3.3]heptan-2-yl)-7-phenylimidazo[1,2-a]pyridine-3-carboxamide], the IC50 is 0.2 to 2 nM.

Regarding `[H][C@]1(c2n[nH]c(=O)c3ccccc32)C[C@]2(C[C@@H](NC(=O)c3cnc4cc(OCc5ccccc5)ccn34)C2)C1` (stereo partly drawn) [Example 384, 7-(benzyloxy)-N-((aR)-6-(4-oxo-3,4-dihydrophthalazin-1-yl)spiro[3.3]heptan-2-yl)imidazo[1,2-a]pyridine-3-carboxamide], the half-inhibitory concentration (IC50) was in the range of 0.2 to 2 nM.

On to `[H][C@]1(c2n[nH]c(=O)c3ccccc32)C[C@]2(C[C@@H](NC(=O)c3cnc4cc(OC)ccn34)C2)C1` (stereo partly drawn) [Example 385, 7-methoxy-N-((aR)-6-(4-oxo-3,4-dihydrophthalazin-1-yl)spiro[3.3]heptan-2-yl)imidazo[1,2-a]pyridine-3-carboxamide], for which the IC50 fell in the range of 0.2 to 2 nM.

For `[H][C@]1(c2n[nH]c(=O)c3ccccc32)C[C@]2(C[C@@H](NC(=O)c3cnc4c(Cl)c(C)ccn34)C2)C1` (stereo partly drawn) [Example 386, 8-chloro-7-methyl-N-((aR)-6-(4-oxo-3,4-dihydro-phthalazin-1-yl)spiro[3.3]heptan-2-yl)imidazo[1,2-a]pyridine-3-carboxamide], the concentration for half-maximal inhibition (IC50) lay in the range of 2.01 to 5 nM.

`[H][C@]1(c2n[nH]c(=O)c3ccccc32)C[C@]2(C[C@@H](NC(=O)c3cnc4cc(F)ccn34)C2)C1` (stereo partly drawn) [Example 387, 7-fluoro-N-((aR)-6-(4-oxo-3,4-dihydrophthalazin-1-yl)spiro[3.3]heptan-2-yl)imidazo[1,2-a]pyridine-3-carboxamide]: the IC50 fell in the range of 2.01 to 5 nM.

Consider `[H][C@]1(c2n[nH]c(=O)c3ccccc32)C[C@]2(C[C@@H](NC(=O)c3nc(C(C)C)n4c3CCCC4)C2)C1` (stereo partly drawn) [Example 388, 3-isopropyl-N-((aR)-6-(4-oxo-3,4-dihydrophthalazin-1-yl)spiro[3.3]heptan-2-yl)-5,6,7,8-tetrahydro-imidazo[1,5-a]pyridine-1-carboxamide], for which the IC50 lay in the range of 2.01 to 5 nM.

For the compound `[H][C@]1(c2n[nH]c(=O)c3ccccc32)C[C@]2(C[C@@H](NC(=O)c3nnc4ccccn34)C2)C1` (stereo partly drawn) [Example 389, N-((aR)-6-(4-oxo-3,4-dihydrophthalazin-1-yl)spiro[3.3]heptan-2-yl)-[1,2,4]triazolo[4,3-a]pyridine-3-carboxamide], the IC50 fell in the range of 5.1 to 15 nM.

Consider `[H][C@]1(c2n[nH]c(=O)c3ccccc32)C[C@]2(C[C@@H](NC(=O)c3cnc4ccc(C(F)(F)F)cn34)C2)C1` (stereo partly drawn) [Example 390, N-((aR)-6-(4-oxo-3,4-dihydrophthalazin-1-yl)spiro[3.3]heptan-2-yl)-6-(trifluoro-methyl)imidazo[1,2-a]pyridine-3-carboxamide], for which the IC50 was in the range of 5.1 to 15 nM.

`[H][C@]1(c2n[nH]c(=O)c3ccccc32)C[C@]2(C[C@@H](NC(=O)c3cnc4cc(N5CCC(F)(F)CC5)ccn34)C2)C1` (stereo partly drawn) [Example 391, 7-(4,4-difluoropiperidin-1-yl)-N-((aR)-6-(4-oxo-3,4-dihydrophthalazin-1-yl)spiro[3.3]heptan-2-yl)imidazo[1,2-a]pyridine-3 carboxamide]: the IC50 fell in the range of 0.2 to 2 nM.

In the case of `[H][C@]1(c2n[nH]c(=O)c3ccccc32)C[C@]2(C[C@@H](NC(=O)c3cnc4cc(N5CCC(F)(F)C5)ccn34)C2)C1` (stereo partly drawn) [Example 392, 7-(3,3-difluoropyrrolidin-1-yl)-N-((aR)-6-(4-oxo-3,4-dihydrophthalazin-1-yl)spiro[3.3]heptan-2-yl)imidazo[1,2-a]pyridine-3 carboxamide], the IC50 was 0.2 to 2 nM.
